Source: patent publication US11746087B1, “C4-carboxylic acid-substituted tryptamine derivatives and methods of using” (priority 2022, dated 2023)
Several values for one entry are separate records, joined by “and”; a condition that tells them apart may be missing. Equal entries are not always repeated.

Experiments:
[1] = Mouse PK study (IV and PO), plasma parent compound and psilocin by LC-MS/MS; format: in vivo; settings: for detectability of parent compound in plasma, any dose: i.v. and oral, any animals at any dose
Excerpt: Briefly, the procedure was as follows. […] 19, 2022.

ADRA1A = target: T1, ADRA1A (Homo sapiens, UniProt P35348); assay: Calcium secondary messenger assay, antagonist mode; format: cell-based
T1 sequence (P35348 1-466): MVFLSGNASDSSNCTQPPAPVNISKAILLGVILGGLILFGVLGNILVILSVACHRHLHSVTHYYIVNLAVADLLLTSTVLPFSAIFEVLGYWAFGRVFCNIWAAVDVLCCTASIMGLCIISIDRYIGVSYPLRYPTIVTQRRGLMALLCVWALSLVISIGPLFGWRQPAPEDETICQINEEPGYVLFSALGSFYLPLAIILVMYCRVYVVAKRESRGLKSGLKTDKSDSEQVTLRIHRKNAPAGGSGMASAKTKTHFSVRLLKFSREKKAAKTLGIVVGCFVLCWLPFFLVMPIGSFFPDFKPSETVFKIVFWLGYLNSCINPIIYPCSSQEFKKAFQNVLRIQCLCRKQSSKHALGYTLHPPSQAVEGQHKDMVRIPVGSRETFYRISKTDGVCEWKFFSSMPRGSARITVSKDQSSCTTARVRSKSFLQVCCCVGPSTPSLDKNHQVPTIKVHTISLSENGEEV

CHRM1 = target: T2, CHRM1 (Homo sapiens, UniProt P11229); assay: cell-based
T2 sequence (P11229 1-460): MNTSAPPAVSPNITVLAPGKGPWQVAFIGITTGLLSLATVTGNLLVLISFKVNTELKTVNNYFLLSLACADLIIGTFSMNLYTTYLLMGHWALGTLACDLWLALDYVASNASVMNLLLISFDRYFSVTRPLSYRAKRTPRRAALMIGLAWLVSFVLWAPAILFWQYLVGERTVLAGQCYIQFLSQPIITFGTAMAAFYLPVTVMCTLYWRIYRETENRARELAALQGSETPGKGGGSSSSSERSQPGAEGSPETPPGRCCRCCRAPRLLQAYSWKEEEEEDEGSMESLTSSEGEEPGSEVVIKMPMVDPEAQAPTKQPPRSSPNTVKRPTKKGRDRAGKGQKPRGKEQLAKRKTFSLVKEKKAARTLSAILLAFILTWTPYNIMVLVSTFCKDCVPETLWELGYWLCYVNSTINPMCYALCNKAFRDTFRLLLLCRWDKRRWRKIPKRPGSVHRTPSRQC

CNR1 = CNR1 (Homo sapiens, UniProt P21554); assay: EFC-based cAMP secondary messenger assay, agonist mode; format: cell-based
DRD2S = DRD2S (Homo sapiens, UniProt P14416); assay: EFC-based cAMP secondary messenger assay, antagonist mode; format: cell-based
HTR1A (5-HT1A) [2] = target: T3, HTR1A (5-HT1A) (Homo sapiens, UniProt P08908); assay: EFC-based cAMP secondary messenger assay, agonist mode; format: cell-based
T3 sequence (P08908 1-422): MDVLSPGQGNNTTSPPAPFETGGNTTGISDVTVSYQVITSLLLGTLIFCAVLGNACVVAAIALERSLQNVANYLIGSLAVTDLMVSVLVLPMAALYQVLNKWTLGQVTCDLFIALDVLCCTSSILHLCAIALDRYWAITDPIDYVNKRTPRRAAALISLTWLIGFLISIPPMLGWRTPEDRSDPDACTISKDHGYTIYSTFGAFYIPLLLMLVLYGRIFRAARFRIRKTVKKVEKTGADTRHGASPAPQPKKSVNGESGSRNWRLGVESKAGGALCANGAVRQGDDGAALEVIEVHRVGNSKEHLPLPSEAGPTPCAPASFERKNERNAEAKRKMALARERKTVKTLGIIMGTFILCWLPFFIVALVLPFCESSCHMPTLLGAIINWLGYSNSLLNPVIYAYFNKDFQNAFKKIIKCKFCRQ

HTR1A (5-HT1A) [3] = target: T3, HTR1A (5-HT1A); assay: EFC-based cAMP secondary messenger assay, antagonist mode; format: cell-based
OPRD1 [4] = target: T4, OPRD1 (Homo sapiens, UniProt P41143); assay: EFC-based cAMP secondary messenger assay, agonist mode; format: cell-based
OPRD1 [5] = target: T4, OPRD1; assay: EFC-based cAMP secondary messenger assay, antagonist mode; format: cell-based
SERT = SERT (Homo sapiens, UniProt P31645); assay: cell-based; settings: transporter
NMDAR = NMDAR (Homo sapiens, UniProt Q05586+Q13224); assay: Ion channel assay (FLIPR membrane potential), opener; format: cell-based
NMDAR, sequence (Q13224 27-1484, other chains not shown): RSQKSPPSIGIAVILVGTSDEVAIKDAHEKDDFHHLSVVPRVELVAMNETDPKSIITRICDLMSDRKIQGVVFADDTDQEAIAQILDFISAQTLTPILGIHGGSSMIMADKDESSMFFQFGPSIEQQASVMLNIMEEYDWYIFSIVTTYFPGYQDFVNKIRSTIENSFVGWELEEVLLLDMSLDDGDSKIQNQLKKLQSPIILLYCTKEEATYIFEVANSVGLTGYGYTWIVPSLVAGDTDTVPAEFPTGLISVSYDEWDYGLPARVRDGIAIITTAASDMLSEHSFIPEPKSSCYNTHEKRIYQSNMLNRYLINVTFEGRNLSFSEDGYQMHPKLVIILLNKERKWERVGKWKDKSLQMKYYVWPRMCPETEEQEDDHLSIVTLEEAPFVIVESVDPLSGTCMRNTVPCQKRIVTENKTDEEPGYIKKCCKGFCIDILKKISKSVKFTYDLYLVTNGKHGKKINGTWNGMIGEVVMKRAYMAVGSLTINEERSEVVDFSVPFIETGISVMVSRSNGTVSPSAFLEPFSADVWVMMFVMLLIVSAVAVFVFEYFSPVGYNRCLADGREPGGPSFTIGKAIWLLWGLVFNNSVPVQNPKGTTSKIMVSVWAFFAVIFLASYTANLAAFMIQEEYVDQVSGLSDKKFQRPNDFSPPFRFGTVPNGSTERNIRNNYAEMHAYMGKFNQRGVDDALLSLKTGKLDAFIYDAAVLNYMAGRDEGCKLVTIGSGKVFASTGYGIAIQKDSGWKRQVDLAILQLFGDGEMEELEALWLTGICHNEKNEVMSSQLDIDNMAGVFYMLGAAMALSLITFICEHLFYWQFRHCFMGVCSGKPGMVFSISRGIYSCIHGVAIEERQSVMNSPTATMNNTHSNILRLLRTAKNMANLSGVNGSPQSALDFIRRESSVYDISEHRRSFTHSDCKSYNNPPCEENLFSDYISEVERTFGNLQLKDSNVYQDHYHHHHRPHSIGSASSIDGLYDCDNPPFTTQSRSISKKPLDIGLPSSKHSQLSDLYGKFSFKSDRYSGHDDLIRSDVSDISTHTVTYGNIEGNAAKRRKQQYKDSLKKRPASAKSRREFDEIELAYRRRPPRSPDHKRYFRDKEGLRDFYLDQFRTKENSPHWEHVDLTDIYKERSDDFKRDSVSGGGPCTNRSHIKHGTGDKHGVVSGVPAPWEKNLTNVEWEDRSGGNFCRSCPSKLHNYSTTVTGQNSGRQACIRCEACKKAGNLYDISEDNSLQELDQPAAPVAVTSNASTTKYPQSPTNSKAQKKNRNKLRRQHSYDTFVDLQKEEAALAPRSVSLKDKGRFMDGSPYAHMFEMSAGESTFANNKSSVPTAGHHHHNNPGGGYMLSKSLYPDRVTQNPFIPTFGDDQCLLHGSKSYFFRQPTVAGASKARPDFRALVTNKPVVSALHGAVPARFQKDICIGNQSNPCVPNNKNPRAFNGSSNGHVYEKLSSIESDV

SERT, sequence (P31645 whole entry): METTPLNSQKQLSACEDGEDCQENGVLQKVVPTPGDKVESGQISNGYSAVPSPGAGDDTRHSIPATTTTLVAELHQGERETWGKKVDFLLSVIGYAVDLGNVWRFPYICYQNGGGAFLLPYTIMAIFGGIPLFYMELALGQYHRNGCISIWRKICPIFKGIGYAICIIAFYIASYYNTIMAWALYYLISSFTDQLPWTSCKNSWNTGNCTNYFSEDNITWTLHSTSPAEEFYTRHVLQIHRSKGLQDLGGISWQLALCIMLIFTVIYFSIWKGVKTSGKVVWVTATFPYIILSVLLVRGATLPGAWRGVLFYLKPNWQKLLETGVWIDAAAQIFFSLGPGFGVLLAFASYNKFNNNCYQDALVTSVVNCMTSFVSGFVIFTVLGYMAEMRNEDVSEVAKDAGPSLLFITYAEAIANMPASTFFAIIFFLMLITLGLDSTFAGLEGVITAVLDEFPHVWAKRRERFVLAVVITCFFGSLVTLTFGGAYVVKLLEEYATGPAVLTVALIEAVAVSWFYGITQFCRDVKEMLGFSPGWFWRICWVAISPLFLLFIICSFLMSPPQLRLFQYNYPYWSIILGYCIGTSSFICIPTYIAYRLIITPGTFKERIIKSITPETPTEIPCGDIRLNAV
CNR1, sequence (P21554 whole entry): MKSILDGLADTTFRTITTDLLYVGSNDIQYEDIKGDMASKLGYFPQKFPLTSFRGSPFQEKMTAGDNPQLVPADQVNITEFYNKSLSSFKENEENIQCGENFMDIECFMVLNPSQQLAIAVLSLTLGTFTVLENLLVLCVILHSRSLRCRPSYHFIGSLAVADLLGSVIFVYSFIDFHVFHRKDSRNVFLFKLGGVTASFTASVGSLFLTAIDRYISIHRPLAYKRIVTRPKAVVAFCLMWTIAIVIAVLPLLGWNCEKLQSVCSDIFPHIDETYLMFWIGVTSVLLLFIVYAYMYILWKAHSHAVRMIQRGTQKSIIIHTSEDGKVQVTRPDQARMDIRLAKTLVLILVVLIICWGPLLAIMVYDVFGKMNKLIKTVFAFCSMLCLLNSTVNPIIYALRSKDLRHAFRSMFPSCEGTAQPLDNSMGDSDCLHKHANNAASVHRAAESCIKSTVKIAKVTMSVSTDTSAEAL
DRD2S, sequence (P14416 1-414 isoform P14416-2): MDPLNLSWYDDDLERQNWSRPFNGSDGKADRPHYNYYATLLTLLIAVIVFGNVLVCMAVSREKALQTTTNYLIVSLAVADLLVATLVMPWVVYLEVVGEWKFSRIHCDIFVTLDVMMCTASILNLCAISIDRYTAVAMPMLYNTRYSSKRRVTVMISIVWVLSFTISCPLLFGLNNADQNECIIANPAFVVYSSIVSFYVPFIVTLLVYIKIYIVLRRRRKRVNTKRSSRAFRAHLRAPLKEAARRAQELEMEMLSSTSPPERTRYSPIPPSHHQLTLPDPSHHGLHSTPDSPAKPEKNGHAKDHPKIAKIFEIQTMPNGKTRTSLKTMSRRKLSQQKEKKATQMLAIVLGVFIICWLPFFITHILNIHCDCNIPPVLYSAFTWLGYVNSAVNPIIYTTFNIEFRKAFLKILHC
T4 sequence (P41143 whole entry): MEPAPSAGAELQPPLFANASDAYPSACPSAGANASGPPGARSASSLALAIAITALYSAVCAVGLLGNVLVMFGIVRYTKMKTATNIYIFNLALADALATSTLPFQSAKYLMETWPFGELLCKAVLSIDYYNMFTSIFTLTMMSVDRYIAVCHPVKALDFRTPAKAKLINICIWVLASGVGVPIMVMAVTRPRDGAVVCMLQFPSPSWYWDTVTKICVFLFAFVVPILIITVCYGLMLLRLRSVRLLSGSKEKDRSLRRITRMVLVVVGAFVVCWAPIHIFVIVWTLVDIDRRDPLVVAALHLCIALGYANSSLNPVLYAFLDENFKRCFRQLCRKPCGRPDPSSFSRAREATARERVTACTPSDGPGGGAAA

## CN(C)CCc1c[nH]c2cccc(OC(=O)CC3CC3)c12 [C(IV)]
[1]; 0.275 mg/kg oral C(IV), 4 h, individual animals, BLQ = below 0.2 ng/mL
  Plasma concentration of psilocin: BLQ
[1]; 0.275 mg/kg oral C(IV), 6 h, individual animals, BLQ = below 0.2 ng/mL
  Plasma concentration of psilocin: BLQ
[1]; 0.275 mg/kg oral C(IV), 8 h, individual animals, BLQ = below 0.2 ng/mL
  Plasma concentration of psilocin: BLQ
[1]; 0.275 mg/kg oral C(IV), 24 h, individual animals
  Plasma concentration of psilocin: No Peak
[1]; 0.293 mg/kg i.v. C(IV), 8 h, individual animals, BLQ = below 0.2 ng/mL
  Plasma concentration of psilocin: No Peak and BLQ (2×)
[1]; 0.789 mg/kg oral C(IV), 8 h, individual animals, BLQ = below 0.2 ng/mL
  Plasma concentration of psilocin: BLQ
[1]; 0.789 mg/kg oral C(IV), 24 h, individual animals
  Plasma concentration of psilocin: No Peak
[1]; 2.52 mg/kg oral C(IV), 24 h, individual animals, BLQ = below 0.2 ng/mL
  Plasma concentration of psilocin: BLQ and No Peak (2×)
[1]; mouse
  detectability of parent compound in plasma, any dose: not detectable in any animals at any dose
ADRA1A
  IC50: 26.4 µM
CHRM1; CHRM1, GPCR, ANT (antagonist)
  IC50: > 100 µM
CNR1
  EC50: > 100 µM
DRD2S
  IC50: > 100 µM
HTR1A (5-HT1A) [2]
  EC50: 5.56 µM
HTR1A (5-HT1A) [3]
  IC50: > 100 µM
OPRD1 [4]
  EC50: 37.8 µM
OPRD1 [5]
  IC50: > 100 µM
SERT; BL (blocker)
  IC50: 67.9 µM
NMDAR
  EC50: > 100 µM

## COc1ccc(C(=O)Oc2cccc3[nH]cc(CCN(C)C)c23)cc1 [C(V)]
[1]; male, C57Bl/6, mouse, plasma, iv, 1 mg/kg, mouse, C(V) 1 mg/kg i.v., 0.25 h, C(V) not stable in plasma, not considered accurate, read-out: Plasma concentration of C(V)
  concentration at 0.25 h: 0.834 ng/mL
[1]; male, C57Bl/6, mouse, plasma, iv, 1 mg/kg, mouse, C(V) 1 mg/kg i.v., estimates not considered accurate (plasma instability), read-out: tmax of C(V)
  Tmax: 5 min
[1]; mouse plasma, PK bioanalysis
  stability in plasma: unstable in plasma
[1]; mouse, 1 mg/kg i.v.
  detectability of parent compound in plasma, i.v. dosing: only detectable in iv. administered animals
[1]; mouse, C(V) 1 mg/kg i.v., 0.5 h, 1 mg/kg
  Plasma concentration of C(V): BLQ and No Peak
[1]; mouse, C(V) 1 mg/kg i.v., 1 h
  Plasma concentration of C(V): No Peak
[1]; mouse, C(V) 1 mg/kg i.v., 2 h
  Plasma concentration of C(V): No Peak
[1]; mouse, C(V) 1 mg/kg i.v., 4 h
  Plasma concentration of C(V): No Peak
[1]; mouse, C(V) 1 mg/kg i.v., 6 h
  Plasma concentration of C(V): No Peak
[1]; mouse, C(V) 1 mg/kg i.v., 8 h
  Plasma concentration of C(V): No Peak
[1]; mouse, C(V) 1 mg/kg i.v., estimates not considered accurate (plasma instability), 1 mg/kg
  tmax of C(V): 0.0833 h (2×) and 0.0833 ± 0.00 h
[1]; mouse, C(V) 1 mg/kg oral, 24 h, 1 mg/kg
  Plasma concentration of psilocin: No Peak and BLQ
[1]; mouse, C(V) 3 mg/kg oral, 24 h, 3 mg/kg
  Plasma concentration of psilocin: No Peak and BLQ
[1]; mouse, C(V) 10 mg/kg oral, 24 h, 10 mg/kg
  Plasma concentration of psilocin: BLQ and No Peak
[1]; mouse, oral, any dose (1, 3, 10 mg/kg)
  detectability of parent compound in plasma, oral dosing: not detectable
ADRA1A
  IC50: 14.9 µM
CHRM1; CHRM1, GPCR, antagonist (ANT)
  IC50: > 100 µM
CNR1
  EC50: > 100 µM
DRD2S
  IC50: 1.78 µM
HTR1A (5-HT1A) [2]
  EC50: 7.08 µM
HTR1A (5-HT1A) [3]
  IC50: > 100 µM
OPRD1 [4]
  EC50: 51.5 µM
OPRD1 [5]
  IC50: > 100 µM
SERT; blocker (BL)
  IC50: > 100 µM
NMDAR
  EC50: > 100 µM

## CN(C)CCc1c[nH]c2cccc(OC(=O)c3c(F)c(F)c(F)c(F)c3F)c12 [C(VI)]
[1]; mouse, C(VI) 1 mg/kg i.v., 8 h
  Plasma concentration of psilocin: BLQ
[1]; mouse, C(VI) 1 mg/kg oral, 24 h, 1 mg/kg
  Plasma concentration of psilocin: BLQ and No Peak
[1]; mouse, C(VI) 3 mg/kg oral, 24 h, 3 mg/kg
  Plasma concentration of psilocin: BLQ and No Peak
[1]; mouse, C(VI) 10 mg/kg oral, 24 h
  Plasma concentration of psilocin: BLQ
[1]; mouse
  detectability of parent compound in plasma, any dose: not detectable in any animals at any dose
ADRA1A
  IC50: 26.9 µM
CHRM1; CHRM1, GPCR, ANT (antagonist)
  IC50: > 100 µM
CNR1
  EC50: 62.9 µM
DRD2S
  IC50: > 100 µM
HTR1A (5-HT1A) [2]
  EC50: 2.21 µM
HTR1A (5-HT1A) [3]
  IC50: > 100 µM
OPRD1 [4]
  EC50: 59.4 µM
OPRD1 [5]
  IC50: > 100 µM
SERT; BL (blocker)
  IC50: 34.3 µM
NMDAR
  EC50: > 100 µM
